Laboratory results from patent US20100113494A1, “13,13a-Dihydroberberine Derivatives For Use In Pharmaceutical Compositions” (SHANGHAI INSTITUTE OF MATERIA MEDICA, CHINESE ACADEMY OF …, priority 2006, published 2010).
Counter-ions that a name gives are not always drawn. Like-named read-outs stand apart in the source and are kept apart here.

Experiments:
[1] = test system: C57BL/6J mice fed by high-fat diet; test: body weight and visceral fat of high-fat diet obese mice; type: in vivo; details: 100 mg/kg/day for 2 weeks
Description: (§1) Ten mice per group were used to perform the efficacy study of the compounds. Dihydroberberine derivative 19 or its sulfate salt was mixed into the high-fat diet, and administered at a dose of 100 mg/kg/day for 2 weeks. After the mice were starved overnight, basal blood sugar value (0 min) was measured by taking blood from tail vein. Then the mice were injected glucose intraperitoneally at a dose of 2 g/kg according to the body weight of the mice in control group which were fed by normal diet followed by measuring blood sugar value at 15, 30, 45, 60, 90 and 120 min respectively and calculating the area under curve (AUC). The body weight and visceral fat of the mice were weighted, and the contents of fatty acid and triglyceride in the blood plasma of the mice were determined.
(§2) In FIGS. 2-4, CH-con means the normal mouse, HF-con refers to the obese mouse, HF-BBR19 is the obese mouse treated with dihydroberberine derivative 19 for 2 weeks, and HF-BBR19Y is the obese mouse treated with the sulfate salt of dihydroberberine derivative 19 for 2 weeks.
Thus they may have a potential effect on treating obesity.

[2] = test system: C57BL/6J mice fed by high-fat diet; test: mouse models with insulin resistance and obesity induced by a high-fat diet (experimental conclusion); type: in vivo; details: high-fat diet mouse model
Description: as §1

[3] = test system: C57BL/6J mice fed by high-fat diet; test: intraperitoneal glucose tolerance test (ipGTT) in high-fat diet obese mice; type: in vivo; details: 100 mg/kg/day in high-fat diet for 2 weeks, glucose 2 g/kg intraperitoneally
Description: as §1, §2
The mice which had been treated with dihydroberberine derivative 19 or its sulfate salt for 2 weeks and the mice in control group were intraperitoneally injected glucose at 2 g/kg after being starved overnight. […]

[4] = test system: C57BL/6J mice fed by high-fat diet; test: free fatty acid and triglyceride in blood plasma of high-fat diet obese mice; type: in vivo; details: 100 mg/kg/day for 2 weeks
Description: as §1, §2

L6 muscle cells [5] = details: 400 μM; cited from earlier work
L6 muscle cells [6] = test: model test on the glucose transport in L6 muscle cells; type: cell-based; details: 10 μM
Description: So, berberine belongs to non-insulin dependent glucose absorption enhancer in the peripheral tissues of the human body. […] In a model test on the glucose transport in L6 muscle cells, the transport rate of 3-methyl glucose in L6 muscle cells increased by about 0.5 times with 400 μM metformin hydrochloride. Berberine hydrochloride could achieve the same effect with less dosage than metformin in a model test on the glucose transport in L6 muscle cells in vitro.
(§3) In our study, the glucose transport rate in L6 muscle cells increased by about 3 times with 10 μM berberine hydrochloride. In a further glucose absorption model test in L6 muscle cells, the glucose absorption in L6 muscle cells increased by more than 2 times with […] berberine hydrochloride in 20 mM glucose medium. […] The improvement in glucose absorption induced by insulin was inhibited obviously, while that induced by berberine was not affected after the treatment with wortmannin, a specific inhibitor of insulin signaling pathway.

L6 muscle cells [7] = test: glucose absorption model test in L6 muscle cells; type: cell-based
Description: as §3

diabetic mice = details: Liu 1996; cited from earlier work
[8] = test system: insulin receptor genes and peroxisome proliferator activated receptor genes; details: Jiang, CN01121906.8; cited from earlier work
p38 MAPK kinase = test: immunoblotting assay of L6 muscle cells, p38 MAPK; type: cell-based
βTC3 cells = details: cited from earlier work
[9] = test system: insulin signaling pathway; test: immunoblotting assay of L6 muscle cells, insulin signaling pathway; type: cell-based
type 2 diabetic patients = details: cited from earlier work
[10] = test system: normal mice and alloxan-induced diabetic mice; details: Chen, Xie 1986, cited from earlier work
HepG2 cells = details: 5-100 μmol of berberine; cited from earlier work
AMP:ATP ratio in cells = AMP:ATP ratio in cells by high performance liquid chromatography; type: cell-based; details: HPLC
AMPK = test: immunoblotting assay of L6 muscle cells, AMPK; type: cell-based

Structure (SMILES): COc1ccc2c(c1OC)CN1CCc3cc4c(cc3C1=C2)OCO4 [Compound 19]
- increase in body weight versus control group [1]: significantly less
- ratio of intra-abdominal (visceral) fat to body weight versus control group [1]: lowered significantly
- improving insulin resistance [2]: significant effects
- relieving fatty liver [2]: significant effects
- glucose tolerance (ipGTT, area under curve) [3]: significantly improved
- content of free fatty acid (NEFA) in blood plasma ([4]; HF-Con 0.76±0.03): 0.6 ± 0.05 mmol/L
- content of triglyceride TG in blood plasma ([4]; HF-Con 1.20±0.05): 0.86 ± 0.08 mmol/L

Structure (SMILES): CN(C)C(=N)N=C(N)N [metformin hydrochloride]
- increase of transport rate of 3-methyl glucose in L6 muscle cells (L6 muscle cells [5]): about 0.5 times

Structure (SMILES): COc1ccc2cc3[n+](cc2c1OC)CCc1cc2c(cc1-3)OCO2 [berberine hydrochloride]
- increase of glucose transport rate in L6 muscle cells (L6 muscle cells [6]): about 3 times
- increase of glucose absorption in L6 muscle cells (L6 muscle cells [7]; 5 berberine hydrochloride in 20 mM glucose medium): more than 2 times

Structure (SMILES): COc1ccc2cc3[n+](cc2c1OC)CCc1cc2c(cc1-3)OCO2 [berberine, Berberine]
- effect on reversing diabetic renal failure (diabetic mice): has a significant effect on reversing diabetic renal failure and
- expressions of insulin receptor genes and peroxisome proliferator activated receptor genes [8]: Berberine can interact with insulin receptors and increase
- glucose absorption induced by berberine after treatment with AMPK and p38 MAPK specific inhibitors (L6 muscle cells [7]; Compound C and SB202190): obviously lowered
- glucose absorption induced by berberine after treatment with wortmannin (L6 muscle cells [7]; wortmannin, specific inhibitor of insulin signaling pathway): not affected
- activity of p38 MAPK kinase (p38 MAPK kinase): significantly reinforced
- stimulation of βTC3 cells to secrete insulin (βTC3 cells): did not stimulate
- effect on insulin signaling pathway [9]: little effect
- fasting blood glucose levels of all patients (type 2 diabetic patients; 20 cases not improved by D860, glibenclamide etc., 3 months, Zhang 1999): levels of all patients were lowered to normal levels 3 months
- side effects (type 2 diabetic patients; 20 cases, Zhang 1999): dependent on dose, and no side effects such as hypoglycemia
- total efficiency (type 2 diabetic patients; 57 cases, berberine added after secondary failure of sulfonylurea alone or with metformin, 1 month, Wang 2002): efficiency was 81%.
- adverse effect during the treatment (type 2 diabetic patients; 60 cases, 1-3 months, Ni 1988): hemogram during the treatment and no obvious adverse effect
- average decrease of fasting blood glucose (type 2 diabetic patients; 60 cases, 1-3 months, Ni 1988): that the fasting blood glucose decreased averagely by 5.1 mmol/L
- toxic and/or adverse effects observed (type 2 diabetic patients; 60 cases, Hu 1995): patients with overweight recovered their normal weights. No
- blood serum insulin levels after the treatment (type 2 diabetic patients; 68 cases, Shi 2000): The blood serum insulin levels of the patients increased
- total efficiency (type 2 diabetic patients; 68 cases, Shi 2000): significantly, and the total efficiency was 86.8%. The action
- time to disappearance of polyuria, polydipsia and polyphagia for all patients (type 2 diabetic patients; 75 cases, Yu 1994): within two weeks after administration of berberine accompanying
- blood glucose levels, observed clinically (type 2 diabetic patients; Juan WANG 2004): decreased
- blood serum insulin levels, observed clinically (type 2 diabetic patients; Juan WANG 2004): increased
- curative effect (blood glucose, blood serum insulin) compared with Diamicron group (type 2 diabetic patients; non-insulin dependent diabetic patients, 30 persons per group, 4 weeks, Yu, Yan 1995): showed that the two groups had similar curative effects and no
- patients observed with adverse effects or hypoglycemia (type 2 diabetic patients; observed for 4 years, regardless of dose, Yu 1994): treated with berberine and observed for 4 years, and none of them
- effect on lowering blood glucose ([10]; dose of 40 mg/kg): atherosclerosis. It had a significant effect on lowering blood
- lowering blood glucose levels ([10]; normal mice and alloxan-induced diabetic mice): biguanides. It can lower blood glucose levels of both normal mice
- increase of glucose consumption in HepG2 cells (HepG2 cells): 32-60%
- AMP:ATP ratio in cells (AMP:ATP ratio in cells): increased significantly
- activity of AMPK (AMPK): significantly reinforced
